Measured values as given in patent US7959743B2, “Lithium salts of fatty alcohol sulphates for cleaning boreholes, boring devices and borings” (priority 2004, dated 2011).

Tested on: Corophium volutator
Settings: in vivo

| Substance | Corophium volutator 10 d, LC 50 |
| --- | --- |
| C8-10 alkyl-1,5-glucoside [V4] | None after 433 mg/kg |
| Soya polyol ethoxylate [V3] | 1888 mg/kg |
